Measurements as given in patent EP3046573B1, “AMYLIN ANALOGUES” (Zealand Pharma A/S, priority 2013, dated 2015).
Read-outs that look alike come from different tables or passages of the source. Numbered stars: 1 amine (or outer) side, 2 acyl side, 3 side chain; on linkers, the order of the positions; unused ones are H or OH. Bridge positions count the residues as written; N and C are the ends. Square brackets hold non-standard residues; d marks the D form. Peptide text beside a SMILES is read from it. * marks the point of attachment. C20 diacid = O=C(O)CCCCCCCCCCCCCCCCCCC(=O)*; γGlu = O=C(O)[C@H](CCC(=O)[*:2])N[*:1]; NMeI = CC[C@H](C)[C@H](NC)C(=O)O; Sar = CNCC(=O)O

Experiments:
[1] = Solubility assessment (turbidity absorbance at 325 nm); assay type: physicochemical; details: stock 2 mg/ml diluted 1:1, ambient temperature (typically 25°C), n=1; for Solubility, Acetate buffer pH 4: 100 mM acetate buffer pH 4.0; for Solubility, Acetate buffer pH 5: 100 mM acetate buffer pH 5.0; for Solubility, Histidine buffer pH 6: 100 mM histidine buffer pH 6.0; for Solubility, Histidine buffer pH 7: 100 mM histidine buffer pH 7.0; for Solubility, Phosphate buffer pH 6: 100 mM phosphate buffer pH 6.0; for Solubility, Phosphate buffer pH 7: 100 mM phosphate buffer pH 7.0; for Solubility, Phosphate buffer pH 7.5: 100 mM phosphate buffer pH7.5
How it was run: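 Turbidity read as absorbance at 325 nm (also 280 nm), single samples at ambient temperature (typically 25°C); ≤ 0.02 units counts as ≥ 1 mg/ml soluble. Samples made by 1:1 dilution of a 2 mg/ml acidic stock into 100 mM acetate, histidine or phosphate buffers, pH 4.0–7.5.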

[2] = molecular target: T1, human calcitonin receptor (hCTR2) (Homo sapiens, UniProt P30988); experiment: hCTR2 assay: induction of cAMP (AlphaScreen cAMP Assay kit) in COS7 cells expressing hCTR2; assay type: cell-based
T1 construct: expressed in transfected cells
T1 sequence (P30988 25-474): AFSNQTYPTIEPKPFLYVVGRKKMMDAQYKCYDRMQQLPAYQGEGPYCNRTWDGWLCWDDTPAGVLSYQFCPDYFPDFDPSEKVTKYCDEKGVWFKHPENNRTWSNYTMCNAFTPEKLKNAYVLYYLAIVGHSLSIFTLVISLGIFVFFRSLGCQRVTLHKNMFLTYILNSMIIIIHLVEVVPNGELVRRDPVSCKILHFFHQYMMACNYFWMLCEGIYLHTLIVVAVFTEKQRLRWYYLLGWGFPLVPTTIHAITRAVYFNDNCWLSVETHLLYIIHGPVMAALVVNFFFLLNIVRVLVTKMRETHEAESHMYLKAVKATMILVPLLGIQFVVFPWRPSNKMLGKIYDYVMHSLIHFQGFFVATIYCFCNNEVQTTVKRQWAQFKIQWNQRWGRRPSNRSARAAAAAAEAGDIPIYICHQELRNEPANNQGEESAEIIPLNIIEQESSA
How it was run: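 cAMP induction was measured by AlphaScreen in COS7 cells stably expressing hCTR2 without RAMPs, after 15 min at 37° C with increasing peptide concentrations, 100 µM IBMX and 0.1% casein (Tyrode, pH 7.4). A 4-parameter logistic fit gave EC50 and % efficacy versus pramlintide.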

[3] = cAMP induction in COS7 cells expressing hCTR2, average of a minimum of 3 determinations, read-out: hCTR2 EC50

Compound	Solubility, Acetate buffer pH 4 [1]	Solubility, Acetate buffer pH 5 [1]	Solubility, Histidine buffer pH 6 [1]	Solubility, Histidine buffer pH 7 [1]	Solubility, Phosphate buffer pH 6 [1]	Solubility, Phosphate buffer pH 7 [1]	Solubility, Phosphate buffer pH 7.5 [1]	EC50 [2, 3]	EC50 [2]
CC[C@H](C)[C@@H](C(=O)N[C@@H](CC(C)C)C(=O)N[C@@H](CO)C(=O)N[C@@H](CO)C(=O)N[C@H](C(=O)N[C@@H](CC(N)=O)C(=O)N[C@H](C(=O)NCC(=O)N[C@@H](CO)C(=O)N[C@@H](CC(N)=O)C(=O)N[C@H](C(=O)N1CCC[C@H]1C(N)=O)[C@@H](C)O)C(C)C)[C@@H](C)O)N(C)C(=O)CN(C)C(=O)[C@H](Cc1ccccc1)NC(=O)[C@H](CC(N)=O)NC(=O)[C@H](CC(N)=O)NC(=O)[C@H](Cc1c[nH]cn1)NC(=O)[C@H](Cc1c[nH]cn1)NC(=O)[C@H](CC(C)C)NC(=O)[C@H](Cc1ccccc1)NC(=O)[C@H](CCC(=O)O)NC(=O)[C@H](C)NC(=O)[C@H](CC(C)C)NC(=O)[C@H](CCCNC(=N)N)NC(=O)[C@H](CCC(N)=O)NC(=O)[C@@H](NC(=O)[C@H](C)NC(=O)[C@@H]1CSSC[C@H](NC(=O)[C@H](CCCNC(=N)N)NC(=O)CC[C@H](NC(=O)CCCCCCCCCCCCCCCCCCC(=O)O)C(=O)O)C(=O)N[C@@H](CC(N)=O)C(=O)N[C@@H]([C@@H](C)O)C(=O)N[C@@H](C)C(=O)N[C@@H]([C@@H](C)O)C(=O)N1)[C@@H](C)O [Compound 48, [19CD]-isoGlu-RC()NTATC()ATQRLAEFLHHNNF-Gly(Me)-Ile(Me)-LSSTNVGSNTP-NH2] ({C20 diacid-γGlu}-RCNTATCATQRLAEFLHHNNF[Sar][NMeI]LSSTNVGSNTP-NH2; disulfide 2-7)	SS (SS indicates solubility ≥ 1mg/ml)	SS (SS indicates solubility ≥ 1mg/ml)	SS (SS indicates solubility ≥ 1mg/ml)	SS (SS indicates solubility ≥ 1mg/ml)	SS (SS indicates solubility ≥ 1mg/ml)	SS (SS indicates solubility ≥ 1mg/ml)	SS (SS indicates solubility ≥ 1mg/ml)	0.12 nM	
CC[C@H](C)[C@@H](C(=O)N[C@@H](CC(C)C)C(=O)N[C@@H](CO)C(=O)N[C@@H](CO)C(=O)N[C@H](C(=O)N[C@@H](CC(N)=O)C(=O)N[C@H](C(=O)NCC(=O)N[C@@H](CO)C(=O)N[C@@H](CC(N)=O)C(=O)N[C@H](C(=O)N1CCC[C@H]1C(N)=O)[C@@H](C)O)C(C)C)[C@@H](C)O)N(C)C(=O)[C@H](C)NC(=O)CN(C)C(=O)[C@@H](Cc1ccccc1)NC(=O)[C@H](CC(N)=O)NC(=O)[C@H](CC(N)=O)NC(=O)[C@H](CO)NC(=O)[C@H](CO)NC(=O)[C@H](CCCNC(=N)N)NC(=O)[C@H](Cc1c[nH]cn1)NC(=O)[C@H](CC(C)C)NC(=O)[C@H](Cc1ccccc1)NC(=O)[C@H](CCC(=O)O)NC(=O)[C@H](C)NC(=O)[C@H](CC(C)C)NC(=O)[C@H](CCCNC(=N)N)NC(=O)[C@H](CCC(N)=O)NC(=O)[C@@H](NC(=O)[C@H](C)NC(=O)[C@@H]1CSSC[C@H](NC(=O)[C@H](CCCCN)NC(=O)CC[C@H](NC(=O)CCCCCCCCCCCCCCCCCCC(=O)O)C(=O)O)C(=O)N[C@@H](CC(N)=O)C(=O)N[C@@H]([C@@H](C)O)C(=O)N[C@@H](C)C(=O)N[C@@H]([C@@H](C)O)C(=O)N1)[C@@H](C)O [Compound 71, [19CD]-isoGlu-KC()NTATC()ATQRLAEFLHRSSNN-DPhe-Gly(Me)-A-Ile(Me)-LSSTNVGSNTP-NH2] ({C20 diacid-γGlu}-KCNTATCATQRLAEFLHRSSNN[dF][Sar]A[NMeI]LSSTNVGSNTP-NH2; disulfide 2-7)	SS (SS indicates solubility ≥ 1mg/ml)	SS (SS indicates solubility ≥ 1mg/ml)	SS (SS indicates solubility ≥ 1mg/ml)	SS (SS indicates solubility ≥ 1mg/ml)	SS (SS indicates solubility ≥ 1mg/ml)	SS (SS indicates solubility ≥ 1mg/ml)	SS (SS indicates solubility ≥ 1mg/ml)		0.068 nM
CC[C@H](C)[C@@H](C(=O)N[C@@H](CC(C)C)C(=O)N[C@@H](CO)C(=O)N[C@@H](CO)C(=O)N[C@H](C(=O)N[C@@H](CCC(=O)O)C(=O)N[C@H](C(=O)NCC(=O)N[C@@H](CO)C(=O)N[C@@H](CCC(=O)O)C(=O)N[C@H](C(=O)N1CCC[C@H]1C(N)=O)[C@@H](C)O)C(C)C)[C@@H](C)O)N(C)C(=O)CN(C)C(=O)[C@H](Cc1ccccc1)NC(=O)[C@H](CO)NC(=O)[C@H](CO)NC(=O)[C@H](CCCNC(=N)N)NC(=O)[C@H](Cc1c[nH]cn1)NC(=O)[C@H](CC(C)C)NC(=O)[C@H](Cc1ccccc1)NC(=O)[C@H](CCC(=O)O)NC(=O)[C@H](C)NC(=O)[C@H](CC(C)C)NC(=O)[C@H](CCCNC(=N)N)NC(=O)[C@H](CCC(N)=O)NC(=O)[C@@H](NC(=O)[C@H](C)NC(=O)[C@@H]1CSSC[C@H](NC(=O)[C@H](CCCNC(=N)N)NC(=O)CC[C@H](NC(=O)CCCCCCCCCCCCCCCCCCC(=O)O)C(=O)O)C(=O)N[C@@H](CC(N)=O)C(=O)N[C@@H]([C@@H](C)O)C(=O)N[C@@H](C)C(=O)N[C@@H]([C@@H](C)O)C(=O)N1)[C@@H](C)O [Compound 95, [19CD]-isoGlu-RC()NTATC()ATQRLAEFLHRSSF-Gly(Me)-Ile(Me)-LSSTEVGSETP-NH2] ({C20 diacid-γGlu}-RCNTATCATQRLAEFLHRSSF[Sar][NMeI]LSSTEVGSETP-NH2; disulfide 2-7)	SS (SS indicates solubility ≥ 1mg/ml)	SS (SS indicates solubility ≥ 1mg/ml)	SS (SS indicates solubility ≥ 1mg/ml)	SS (SS indicates solubility ≥ 1mg/ml)	SS (SS indicates solubility ≥ 1mg/ml)	SS (SS indicates solubility ≥ 1mg/ml)	SS (SS indicates solubility ≥ 1mg/ml)	0.082 nM	
CC[C@H](C)[C@@H](C(=O)N[C@@H](CC(C)C)C(=O)N[C@@H](CO)C(=O)N[C@@H](CO)C(=O)N[C@H](C(=O)N[C@@H](CC(N)=O)C(=O)N[C@H](C(=O)NCC(=O)N[C@@H](CO)C(=O)N[C@@H](CC(N)=O)C(=O)N[C@H](C(=O)N1CCC[C@H]1C(N)=O)[C@@H](C)O)C(C)C)[C@@H](C)O)N(C)C(=O)[C@H](C)NC(=O)CN(C)C(=O)[C@H](Cc1ccccc1)NC(=O)[C@H](CC(N)=O)NC(=O)[C@H](CC(N)=O)NC(=O)[C@H](Cc1c[nH]cn1)NC(=O)[C@H](Cc1c[nH]cn1)NC(=O)[C@H](CC(C)C)NC(=O)[C@H](Cc1ccccc1)NC(=O)[C@H](CCC(=O)O)NC(=O)[C@H](C)NC(=O)[C@H](CC(C)C)NC(=O)[C@H](CCCNC(=N)N)NC(=O)[C@H](CCC(N)=O)NC(=O)[C@@H](NC(=O)[C@H](C)NC(=O)[C@@H]1CSSC[C@H](NC(=O)[C@H](CCCNC(=N)N)NC(=O)CC[C@H](NC(=O)CCCCCCCCCCCCCCCCCCC(=O)O)C(=O)O)C(=O)N[C@@H](CC(N)=O)C(=O)N[C@@H]([C@@H](C)O)C(=O)N[C@@H](C)C(=O)N[C@@H]([C@@H](C)O)C(=O)N1)[C@@H](C)O [Compound 47, [19CD]-isoGlu-RC()NTATC()ATQRLAEFLHHNNF-Gly(Me)-A-Ile(Me)-LSSTNVGSNTP-NH2] ({C20 diacid-γGlu}-RCNTATCATQRLAEFLHHNNF[Sar]A[NMeI]LSSTNVGSNTP-NH2; disulfide 2-7)	SS (SS indicates solubility ≥ 1mg/ml)	SS (SS indicates solubility ≥ 1mg/ml)	SS (SS indicates solubility ≥ 1mg/ml)	SS (SS indicates solubility ≥ 1mg/ml)	SS (SS indicates solubility ≥ 1mg/ml)	SS (SS indicates solubility ≥ 1mg/ml)	SS (SS indicates solubility ≥ 1mg/ml)	0.06 nM	
